The assay concerns the target T1, BAG3 full-length (Homo sapiens, UniProt O95817).
T1 construct: both the full-length BAG3 protein and its BAG domain; purchased Novus Biologicals (Littleton, CO, USA)
The experiment in a line: SPR assay on BAG3 full-length protein. Particulars: Biacore T200, 0 to 100 µM, 25 °C, 1:1 interaction model, n.b. = no binding, read-out: BAG3 FULL KD (µM) ± SD. Here is the method: In this study, we employed SPR experiments to evaluate the interactions between synthesized compounds (1–14) and both the full-length BAG3 protein and its BAG domain. Only the compounds that successfully bound to the full-length BAG3 protein were tested for their interaction with the BAG domain. Protein immobilization was achieved using the amide coupling method, and the compounds were tested at ten different concentrations, ranging from 0 to 100 µM. A known binder of BAG3-BD, LK4 ((Z)-ethyl 2-(5-(3,4-dihydroxybenzylidene)-2,4-dioxothiazolidin-3yl)acetate), was used as a positive control. […] Compound 14 also bound the target but with slightly higher KD values, still within the micromolar range. The three identified compounds were further investigated to understand whether this binding induced an effect on BAG3 protein functions. The KD values reported in Table 1 for the known inhibitor LK4 differ from those in previous studies due to the use of a newer-generation instrument for the SPR experiments. The earlier experiments utilized the Biacore 3000, whereas the current study employed the Biacore T200. While ligand binding was confirmed in both sets of experiments, the slightly different KD values are attributed to the enhanced sensitivity of the Biacore T200.
Recombinant human BAG3 protein (Bcl2-associated athanogene 3) was sourced from Novus Biologicals (Littleton, CO, USA), while the BAG3 domain (BAG3-BD) was procured from ARETA International S.r.l. (Gerenzano, Italy). We utilized (Z)-ethyl 2-(5-(3,4-dihydroxybenzylidene)-2,4-dioxothiazolidin-3-yl)acetate (LK4), a known BAG3 inhibitor previously identified by our group. Surface Plasmon Resonance (SPR) spectroscopy was employed to assess the affinity of synthesized molecules for BAG3 and BAG-BD using a Biacore T200 optical biosensor equipped with CM5 sensor chips (Cytiva, Marlborough, MA, USA). BAG3 and BAG-BD were immobilized on the CM5 sensor chip using standard amine-coupling protocols. BAG3 protein (0.067 μg/μL in 10 mM CH3COONa, pH 4.5) was immobilized at a flow rate of 10 μL/min, resulting in a density of 14 kRU. The BAG3 domain (0.38 μg/μL in 10 mM CH3COONa, pH 4.5) was immobilized under similar conditions, achieving a density of 4 kRU. For the experiments, BAG3 and BAG-BD surfaces, along with an unmodified reference surface, were prepared for simultaneous analyses.
Compounds 1–14 and LK4 were dissolved to 10 mM in 100% DMSO and then diluted 1:20 (v/v) in PBS-P buffer (0.2 M phosphate buffer, 27 mM KCl, 1.37 M NaCl, 0.5% surfactant P20) to achieve a final DMSO concentration of 5.0%. These compounds were injected in a concentration series (1:2 dilution, 10 different concentrations) ranging from 0 to 100 μM, prepared in 96-well plates. SPR experiments were conducted at 25 °C with a flow rate of 20 μL/min, featuring 90 s of association and 400 s of dissociation monitoring. Changes in mass, reflected as resonance units (RU), were recorded to determine binding responses. KD values were calculated using Biaevaluation software 3.2 by globally fitting the double-referenced association and dissociation data to a 1:1 interaction model. See Supplementary Materials for all the sensorgrams (Figures S43–S50).

T1 sequence (O95817 whole entry, the tested form may be a part): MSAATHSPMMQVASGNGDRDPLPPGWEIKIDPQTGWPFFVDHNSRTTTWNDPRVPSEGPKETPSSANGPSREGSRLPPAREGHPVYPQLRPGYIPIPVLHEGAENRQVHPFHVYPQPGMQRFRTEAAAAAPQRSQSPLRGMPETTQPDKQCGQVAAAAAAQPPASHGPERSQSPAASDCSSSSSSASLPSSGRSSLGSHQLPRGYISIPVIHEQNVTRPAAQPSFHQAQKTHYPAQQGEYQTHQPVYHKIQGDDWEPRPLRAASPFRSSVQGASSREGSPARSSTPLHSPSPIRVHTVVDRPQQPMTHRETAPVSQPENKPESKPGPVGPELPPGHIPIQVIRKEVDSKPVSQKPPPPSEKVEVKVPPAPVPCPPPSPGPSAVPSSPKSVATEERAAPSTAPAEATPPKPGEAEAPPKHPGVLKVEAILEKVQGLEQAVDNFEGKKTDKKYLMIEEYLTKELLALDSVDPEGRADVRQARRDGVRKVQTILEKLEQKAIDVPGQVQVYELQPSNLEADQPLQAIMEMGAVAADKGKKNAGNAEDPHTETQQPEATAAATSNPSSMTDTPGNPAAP

On to `CC(C)Nc1c(-c2ccccc2Br)nc2ccc(Cl)cn12` [Compound 10, 2-(2-bromophenyl)-6-chloro-N-isopropylimidazo[1,2-a]pyridin-3-amine], for which the Kd came to 33.5 ± 0.21 µM.

(Values after paper PMC11547576, “Identification of a New Promising BAG3 Modulator Featuring the Imidazopyridine Scaffold” (Molecules, 2024).)
